Measured values from patent US6683052B1, “Lipopeptides containing an interferon-γ fragment, and uses thereof in pharmaceutical compositions” (Institut National de la Sante et de la Recherche Medicale …, priority 1998, dated 2004).
Where no end group is shown, it is not given here. The star is where a group is joined. Palmitoyl = CCCCCCCCCCCCCCCC(=O)*

Columns and labels:
murine splenocytes = test: Induction of class II CMH molecules (IA^b) on murine splenocytes by lipopeptide fragments (FIG. 12A); type: cell-based, 129 Sv mice; settings: murine splenocytes, 24 hours, different concentrations
Description: (§1) Fresh splenocytes are obtained from 7-week-old female 129 Sv mice. The COLO 205 human colon carcinoma lines are obtained from the ATCC (American Type Culture Collection). The splenocytes and COLO 205 cells are maintained in RPMI 1640 (Gibco BRL, Courbevoie, France), supplemented with 10% FCS (Gibco BRL), sodium pyruvate (Sigma, St. Louis, USA) and incubated at 37° C. in 5% CO2.
(§2) The cells were stimulated for 24 hours with different concentrations of MuL, L-mIFNγ 113-132, L-mIFNγ 122-132 or MuSL. The murine splenocytes and COLO 205 cells were labelled for the expression of II MHC with 1 μg of anti-mouse IA^b FITC monoclonal antibody (mAb) (Pharmingen, San Diego, USA) and 10 μl of anti-HLA-DR clone TAL.1B5 mouse FITC mAb (Cymbus Biotechnology Ltd, Hants, UK), respectively. A negative control mouse FITC IgG1 (DAKO S. A., Trappes, France) was used as control isotype. The cells were incubated for 1 hour at 4° C. in PBS, 10% FCS and then washed, and the expression of II MHC was analysed by flow cytometry using a Coulter EPILS II cytometer (Coulter, Hialeah, Fla., USA) at a rate of 10,000 events per sample.
(§3) FIG. 12: Induction of class II CMH molecules by human or murine cells stimulated with lipopeptides derived from IFN-γ. The murine splenocytes (A) and the COLO 205 human cell line (B) were incubated for 24 hours with different concentrations of lipopeptides derived from IFN-γ. The cells were labelled with a monoclonal antibody directed against the class II CMH molecules, and analysed by flow cytometry. The ratio between the average fluorescence intensity of the cells treated with the lipopeptides and between the average fluorescence intensity of the untreated cells is indicated on the y-axis. The lipopeptide concentration is indicated in μM on the x-axis; MuL: solid circles; MuSL : hollow circles; L-mIFN 113-132: triangles; L-mIFN 122-132: X.

COLO 205 human cell line = test: Induction of HLA-DR on COLO 205 cells by lipopeptide fragments (FIG. 12B); type: cell-based; settings: COLO 205, 24 hours, different concentrations
Description: as §1, §2, §3

peritoneal cells = test: Expression of class II CMH molecules and Fc-γ receptors on peritoneal cells taken from an animal; type: cell-based, Balb/c mouse; settings: 50 μM, 24 hours, flow cytometry
Description: (§4) Principle: to evaluate the activity of the vectorized agonist on cells taken from an animal and treated in vitro (in order to assess the value of a subsequent in vivo study).
(§5) Procedure. The splenocytes and peritoneal cells taken from an animal (Balb/c mouse) are re-cultured at a rate of 2.5×10^6 splenocytes and […] peritoneal cells per well in 24-well plates (NUNC) stimulated with 50 μM of the different peptides in a final volume of 1 ml. After stimulation for 24 hours, the cells are labelled with the anti IA^d monoclonal antibody described in the preceding paragraph, according to the same protocol. To detect the Fc-γ R, the cells are labelled with 1 μg of a rat anti Fc-γ R monoclonal antibody (Pharmingen, San Diego, USA). Next, the cells are incubated for ½ hour with a rat anti IgG biotinylated polyclonal antibody. The revelation is then carried out with FITC streptavidin used at a dilution of 1:100 (Sigma, St. Louis, USA). The expression of Fc-γ R is determined by flow cytometry.

[1] = system: cells taken from mice 129 no longer expressing the alpha chain of the IFN-γ receptor (KO mice); test: Involvement of the IFN-γ receptor: IA^d and Fc-γ R on cells of mice lacking the alpha chain of the IFN-γ receptor; type: cell-based; settings: stimulation for 24 hours, flow cytometry
Description: as §5
(§6) Principle. to confirm that the biological activity observed was effectively associated with a stimulation of the IFN-γ receptor, we repeated the same experiments, in parallel on splenocytes taken from mice 129 (Wild type: WT) and on cells taken from mice 129 no longer expressing the alpha chain of the IFN-γ receptor (KO mice).
(§7) Procedure. The experimental protocol followed is identical to that described in paragraph 2 above.

P388D1 = test: Induction of class II CMH molecules on P388D1 cell line, flow cytometry; type: cell-based, murine; settings: 50 μM, stimulated for 24 hours
Description: (§8) Principle: to check the induction of class II CMH molecules on cell lines (P388D1 and WEHI3: murine myelomonocytes) with the above-mentioned peptides.
(§9) Procedure. The cells are cultured the day before at a rate of 3×10^5 cells per well in 24-well culture plates (NUNC). The following day, the cells are stimulated with the various lipopeptide and peptide constructs at a final concentration of 50 μM in 1 ml of medium. After incubation for 24 hours at 37° C. in an atmosphere saturated with 5% CO2, the cells are recovered and incubated for 1 hour at 4° C. with 3 μg of a biotinylated mouse anti-I-Ad monoclonal antibody (Pharmingen, San Diego, USA). After revelation for 30 minutes with FITC streptavidin used at a dilution of 1:100 (Sigma, St. Louis, USA), the expression of class II molecules is determined by flow cytometry.

[2] = system: splenocytes taken from mice 129 (Wild type: WT); test: Involvement of the IFN-γ receptor: IA^d and Fc-γ R on splenocytes of wild type mice 129; type: cell-based; settings: stimulation for 24 hours, flow cytometry
Description: as §5, §6, §7

[3] = system: human peripheral blood mononuclear cells (PBMC); test: Induction of HLA-DR, ICAM-1 and VCAM-1 on human PBMC; type: cell-based; settings: 24 hours
Description: Principle. In the light of the results obtained on the human cell line and on human primary cultures, the immunostimulatory potential of MuL was evaluated on human cells taken directly from a healthy donor.
Procedure. PBMCs are isolated from a bag of blood and the cells are then cultured and stimulated for 24 hours with 25 and 50 μM of MuSL or MuL in a final volume of 1 ml. The cells are then recovered and labelled for the expression of VCAM-1, ICAM-1 and HLA-DR according to the protocol already described above. Finally, the cells are analysed by flow cytometry.

splenocytes = test: Expression of class II CMH molecules and Fc-γ receptors on splenocytes taken from an animal; type: cell-based, Balb/c mouse; settings: 50 μM, 24 hours
Description: as §4, §5

[4] = system: L929 cells infected with the VSV virus; type: cell-based, mouse; settings: 1 to 10 μM
[5] = system: splenocytes stimulated with anti-CD40 and IL-4; test: Inhibition of IL-4 activity: anti-CD40 + IL-4 proliferation of splenocytes, tritiated thymidine; type: cell-based, Balb/c mice; settings: 10 μM
Excerpt: It is commonly described that the immunomodulatory potential of IFN-γ lies in its ability to polarize the establishment of a type-1 T helper (Th1) response, while at the same time inhibiting the development of a type-2 T helper (Th2) response. This inhibitory action on the polarization of the Th2 response takes place mainly via inhibition of the activity of IL-4. […] The stimulation of splenocytes with an anti-CD40 antibody (antibody directed against a surface cell label: CD40) and IL-4 induces a proliferation of the murine B cells, following a synergistic action between the CD40 and IL-4 stimulation (Hasbold et al. 1994).
The splenocytes taken from Balb/c mice are cultured and stimulated with anti-CD40 (10 μg/ml) and IL-4 (10 U/ml). 10 μM of the synthetic agonist of IFN-γ (MuL) or of its control lipopeptide (MuSL) are added. After stimulation for 24 hours, tritiated thymidine is added at a rate of 0.5 μCurie per well. After incubation for 18 hours, the cells are filtered off and the incorporation of tritiated thymidine is evaluated. This incorporation is proportional to the cell proliferation.

WEHI3 = test: Induction of class II CMH molecules on WEHI3 cell line, flow cytometry; type: cell-based, murine; settings: 50 μM, stimulated for 24 hours
Description: as §8, §9

[6] = system: human colon carcinoma cells (COLO 205); test: Induction of HLA-DR on COLO 205 cell line, flow cytometry; type: cell-based; settings: COLO 205, 50 μM
Description: Principle: human colon carcinoma cells (COLO 205) are analysed for their ability to express HLA-DR after having been stimulated with the various peptide constructs.
Procedure. The cell line COLO 205 is cultured at a rate of 3×10^5 cells per well in a 24-well culture plate (NUNC). The following day, the cells are stimulated with the various peptide constructs at a final concentration of 50 μM in 1 ml of medium, and are incubated at 37° C. for 24 hours. The cells are then recovered and labelled using 3 μg of an anti HLA-DR mouse biotinylated monoclonal antibody (clone L243). After revelation with FITC streptavidin, the cells are analysed by flow cytometry.

With “MuSL: control "scrambled" lipopeptide: MuL in which the order of the amino acids has been rearranged, Ac-K(Pam) (Ac-K(Palmitoyl)PSRENQNAVKIQKLSVVLRREQKHRVERLAFRNQSLPF)” the “increase in class II CMH molecules (FIG. 12A)” value (murine splenocytes) was “neither L-mIFN-γ 122-132 nor MuSL are active”, the “increase in class II CMH molecules (FIG. 12B)” value (COLO 205 human cell line) was “neither L-mIFN-γ 122-132 nor MuSL are active” and the “peritoneal cells II CMH (%)” value (peritoneal cells) was 13%. For the same substance, the “peritoneal cells RFc (%)” value (peritoneal cells) was 20%, the “KO mice II CMR (%)” value [1] was 4% and the “KO mice RFc (%)” value [1] was 3%. For the same substance, the “percentage of class II CMH detected by flow cytometry, P388D1” value (P388D1) was 13%, the “WT mice II CMH (%)” value [2] was 4% and the “WT mice RFc (%)” value [2] was 2%. The “percentage of ICAM-1 detected on PBMCs” value ([3]; 25 μM) was 29.4%, the “percentage of VCAM-1 detected on PBMCs” value ([3]; 25 μM) was 39.7% and the “percentage of HLA-DR detected on PBMCs” value ([3]; 50 μM) was 58.3%. For the same substance, the “percentage of ICAM-1 detected on PBMCs” value ([3]; 50 μM) was 32%, the “percentage of VCAM-1 detected on PBMCs” value ([3]; 50 μM) was 86.9% and the “splenocytes II CMH (%)” value (splenocytes; flow cytometry) was 14%. For the same substance, the “splenocytes RFc (%)” value (splenocytes; flow cytometry) was 15%, the “increase of IA^d and of Fc-γ R on the treated cells” value (splenocytes; splenocytes and peritoneal cells) was “no notable activity” and the “effect on viral lysis (FIG. 2)” value [4] was “no effect on viral lysis”. The “effect on the synergistic anti-CD40 + IL-4 proliferation (FIG. 4)” value [5] was “no effect”, the “percentage of class II CMH detected by flow cytometry, WEH1” value (WEHI3) was 15% and the “induction of the expression of HLA-DR” value [6] was “no activity”. For the same substance, the “% HLA-DR” value ([6]; 24 hours, flow cytometry) was 8.9%.
